Laboratory results taken from ChEMBL document CHEMBL1201862, “PubChem BioAssay data set” (2004).
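Growth conditions: 96-well plates. Treatment: test compound, 48 hours, 5 concentrations. Analysis: linear interpolation between bracketing concentrations; unreached endpoints set to highest concentration. GI50 is the concentration that inhibits growth by half.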 Calls of active or inactive are those of the source. No stated cut-off is given here; in the data, active = GI50 up to about 1.1 µM and inactive = higher.

Key:
Test in all cases: NCI-60 cell line screen, 48 h
[1] = system: HOP-62
[2] = system: SF-268
[3] = system: SNB-75
[4] = system: EKVX
[5] = system: CAKI-1
[6] = system: KM12
[7] = system: SK-MEL-2
[8] = system: HCC 2998
[9] = system: 786-0
[10] = system: SR
[11] = system: CCRF-CEM
[12] = system: DU-145
[13] = system: Hs-578T
[14] = system: HT-29
[15] = system: U-251
[16] = system: A549
[17] = system: NCI-H522
[18] = system: RXF 393
[19] = system: NCI-H226

With `O=C(c1ccccc1)c1ccc(N2C(=O)/C(=C/Cc3ccco3)N=C2c2ccccc2)c(N2C(=O)/C(=C/Cc3ccco3)N=C2c2ccccc2)c1` the GI50 [1] was 40 µM (inactive), the GI50 [2] was 32.1 µM (inactive) and the GI50 [3] was 28.1 µM (inactive). The GI50 [4] was 81.5 µM (inactive), the GI50 [5] was 67.5 µM (inactive) and the GI50 [6] was 28.4 µM (inactive). The GI50 [7] was 25.5 µM (inactive), the GI50 [8] was 36.9 µM (inactive) and the GI50 [9] was 45.7 µM (inactive). For the same compound, the GI50 [10] was 28.6 µM (inactive), the GI50 [11] was 11.1 µM (inactive) and the GI50 [12] was 30 µM (inactive). For the same compound, the GI50 [13] was 25.8 µM (inactive), the GI50 [14] was 43.4 µM (inactive) and the GI50 [15] was 18.8 µM (inactive). The GI50 [16] was 35.8 µM (inactive).
In the case of `COc1cc([C@@H]2c3cc4c(cc3[C@H](OC3OC5COC(C(C)C)OC5C(O)C3O)C3COC(=O)[C@@H]32)OCO4)cc(OC)c1O` (some centres undefined), the GI50 [1] was 11.7 µM (inactive), the GI50 [2] was 9.86 µM (inactive) and the GI50 [4] was 17.6 µM (inactive). For the same compound, the GI50 [5] was 4.27 µM (inactive), the GI50 [6] was 16.1 µM (inactive) and the GI50 [7] was 17.3 µM (inactive). For the same compound, the GI50 [17] was 14 µM (inactive), the GI50 [9] was 10 µM (inactive) and the GI50 [18] was 4.76 µM (inactive). For the same compound, the GI50 [10] was 1.47 µM (inactive), the GI50 [11] was 6.03 µM (inactive) and the GI50 [13] was 9.71 µM (inactive). For the same compound, the GI50 [14] was 2.97 µM (inactive), the GI50 [15] was 2.53 µM (inactive) and the GI50 [16] was 8.67 µM (inactive). For the same compound, the GI50 [19] was 5.26 µM (inactive).
For `O=C1CSC2=NC3=C(CSC/C3=C\c3ccc(Cl)cc3)C(c3ccc(Cl)cc3)N12` (centres undefined), the GI50 [2] was 41.2 µM (inactive), the GI50 [4] was 27.4 µM (inactive) and the GI50 [5] was 37.2 µM (inactive). The GI50 [6] was 8.04 µM (inactive), the GI50 [7] was 25.3 µM (inactive) and the GI50 [17] was 12.5 µM (inactive). The GI50 [8] was 25.6 µM (inactive), the GI50 [9] was > 10 µM (inactive) and the GI50 [10] was 14.9 µM (inactive). For the same compound, the GI50 [11] was 14.6 µM (inactive), the GI50 [12] was 28.4 µM (inactive) and the GI50 [14] was 20.2 µM (inactive). The GI50 [15] was > 10 µM (inactive) and the GI50 [16] was 6.87 µM (inactive).
In the case of `Clc1ccccc1C(SCc1ccccc1)SCc1ccccc1`, the GI50 [1] was > 100 µM (inactive), the GI50 [2] was > 100 µM (inactive) and the GI50 [3] was 41.8 µM (inactive). The GI50 [4] was 39.6 µM (inactive), the GI50 [5] was > 100 µM (inactive) and the GI50 [6] was 93.8 µM (inactive). For the same compound, the GI50 [7] was > 100 µM (inactive), the GI50 [17] was > 100 µM (inactive) and the GI50 [8] was > 100 µM (inactive). For the same compound, the GI50 [9] was > 100 µM (inactive), the GI50 [18] was > 100 µM (inactive) and the GI50 [10] was > 100 µM (inactive). The GI50 [11] was > 100 µM (inactive), the GI50 [12] was > 100 µM (inactive) and the GI50 [14] was > 100 µM (inactive). The GI50 [15] was > 100 µM (inactive), the GI50 [16] was > 100 µM (inactive) and the GI50 [19] was > 100 µM (inactive).
In the case of `OC1CSCCCSCCSCCCSC1`, the GI50 [1] was > 100 µM (inactive), the GI50 [2] was > 100 µM (inactive) and the GI50 [3] was > 100 µM (inactive). The GI50 [4] was > 100 µM (inactive), the GI50 [5] was > 100 µM (inactive) and the GI50 [7] was > 100 µM (inactive). The GI50 [17] was > 100 µM (inactive), the GI50 [8] was > 100 µM (inactive) and the GI50 [9] was > 100 µM (inactive). For the same compound, the GI50 [18] was > 100 µM (inactive), the GI50 [12] was > 100 µM (inactive) and the GI50 [13] was > 100 µM (inactive). For the same compound, the GI50 [14] was > 100 µM (inactive), the GI50 [15] was > 100 µM (inactive) and the GI50 [16] was > 100 µM (inactive). For the same compound, the GI50 [19] was > 100 µM (inactive).
With `O=C(c1ccc2ccccc2c1)C1(I)S(=O)(=O)OCCOS1(=O)=O` the GI50 [1] was > 100 µM (inactive), the GI50 [4] was > 100 µM (inactive) and the GI50 [5] was > 100 µM (inactive). The GI50 [6] was > 100 µM (inactive), the GI50 [7] was > 100 µM (inactive) and the GI50 [8] was > 100 µM (inactive). For the same compound, the GI50 [9] was > 100 µM (inactive), the GI50 [10] was > 100 µM (inactive) and the GI50 [11] was > 100 µM (inactive). For the same compound, the GI50 [12] was > 100 µM (inactive), the GI50 [14] was > 100 µM (inactive) and the GI50 [15] was > 100 µM (inactive). The GI50 [16] was > 100 µM (inactive).
In the case of `Nc1nc(N)c2c(n1)CCC(S(=O)(=O)c1ccc3ccccc3c1)C2` (centres undefined), the GI50 [1] was 9.51 µM (inactive), the GI50 [2] was 11 µM (inactive) and the GI50 [4] was 31.8 µM (inactive). The GI50 [5] was 6 µM (inactive), the GI50 [6] was 6.08 µM (inactive) and the GI50 [8] was 13.6 µM (inactive). For the same compound, the GI50 [9] was 23.1 µM (inactive), the GI50 [10] was 4.08 µM (inactive) and the GI50 [11] was 5.2 µM (inactive). The GI50 [12] was 9.59 µM (inactive), the GI50 [14] was 1.26 µM (inactive) and the GI50 [15] was 2.45 µM (inactive). For the same compound, the GI50 [16] was 0.54 µM (active) and the GI50 [19] was 39.3 µM (inactive).
`C=C[C@@]1(C)CC(=O)[C@]2(O)[C@@]3(C)[C@@H](OC(C)=O)CCC(C)(C)[C@@H]3[C@H](O)[C@H](OC(C)=O)[C@@]2(C)O1` was tested, and the GI50 [1] was > 100 µM (inactive), the GI50 [3] was 27.6 µM (inactive) and the GI50 [4] was > 100 µM (inactive). The GI50 [5] was > 100 µM (inactive), the GI50 [6] was 13.4 µM (inactive) and the GI50 [7] was > 100 µM (inactive). For the same compound, the GI50 [8] was > 100 µM (inactive), the GI50 [9] was 83.6 µM (inactive) and the GI50 [10] was > 100 µM (inactive). The GI50 [12] was > 100 µM (inactive), the GI50 [14] was > 100 µM (inactive) and the GI50 [15] was > 100 µM (inactive). For the same compound, the GI50 [16] was > 100 µM (inactive) and the GI50 [19] was > 100 µM (inactive).
`COc1ccccc1N1C(=O)/C(=C/c2ccc(N(CCC#N)CCC#N)cc2C)N=C1c1cc([N+](=O)[O-])ccc1Cl` was tested, and the GI50 [1] was > 100 µM (inactive), the GI50 [2] was > 100 µM (inactive) and the GI50 [3] was > 100 µM (inactive). For the same compound, the GI50 [4] was > 100 µM (inactive), the GI50 [5] was > 100 µM (inactive) and the GI50 [6] was > 100 µM (inactive). For the same compound, the GI50 [7] was > 100 µM (inactive), the GI50 [17] was > 100 µM (inactive) and the GI50 [8] was > 100 µM (inactive). The GI50 [9] was > 100 µM (inactive), the GI50 [10] was > 100 µM (inactive) and the GI50 [11] was > 100 µM (inactive). The GI50 [14] was > 100 µM (inactive), the GI50 [15] was > 100 µM (inactive) and the GI50 [16] was > 100 µM (inactive). For the same compound, the GI50 [19] was > 100 µM (inactive).
In the case of `O=C1c2ccccc2-c2ccc(/N=N/c3c(O)ccc4ccccc34)cc21`, the GI50 [1] was > 100 µM (inactive), the GI50 [2] was > 100 µM (inactive) and the GI50 [3] was > 100 µM (inactive). For the same compound, the GI50 [4] was > 100 µM (inactive), the GI50 [5] was > 100 µM (inactive) and the GI50 [6] was > 100 µM (inactive). The GI50 [7] was > 100 µM (inactive), the GI50 [17] was > 100 µM (inactive) and the GI50 [9] was > 100 µM (inactive). The GI50 [18] was > 100 µM (inactive), the GI50 [11] was 15.4 µM (inactive) and the GI50 [12] was > 100 µM (inactive). For the same compound, the GI50 [13] was > 100 µM (inactive), the GI50 [14] was > 100 µM (inactive) and the GI50 [15] was > 100 µM (inactive). The GI50 [16] was > 100 µM (inactive) and the GI50 [19] was > 100 µM (inactive).
For `Cc1c(C2CCSc3ccccc3N2)sc2ccccc12` (centres undefined), the GI50 [1] was > 100 µM (inactive), the GI50 [2] was > 100 µM (inactive) and the GI50 [3] was 98.2 µM (inactive). For the same compound, the GI50 [4] was 30.9 µM (inactive), the GI50 [5] was 52.5 µM (inactive) and the GI50 [6] was 65.6 µM (inactive). The GI50 [7] was > 100 µM (inactive), the GI50 [17] was 47 µM (inactive) and the GI50 [8] was 80.4 µM (inactive). The GI50 [9] was > 100 µM (inactive), the GI50 [18] was 86.5 µM (inactive) and the GI50 [12] was > 100 µM (inactive). For the same compound, the GI50 [13] was > 100 µM (inactive), the GI50 [14] was 54.8 µM (inactive) and the GI50 [15] was > 100 µM (inactive). For the same compound, the GI50 [16] was 99.8 µM (inactive) and the GI50 [19] was > 100 µM (inactive).
In the case of `CCN(CC)CCN1C(=O)CC2[C@@H]3CCc4cc(OC)ccc4C3CC[C@]2(C)C1=O` (some centres undefined), the GI50 [1] was 25.2 µM (inactive), the GI50 [2] was 38.5 µM (inactive) and the GI50 [3] was 33 µM (inactive). The GI50 [6] was 33.5 µM (inactive), the GI50 [7] was 20.9 µM (inactive) and the GI50 [17] was 22.3 µM (inactive). For the same compound, the GI50 [9] was 17.3 µM (inactive), the GI50 [18] was 30.5 µM (inactive) and the GI50 [10] was > 10 µM (inactive). The GI50 [11] was 18.8 µM (inactive), the GI50 [14] was 18.4 µM (inactive) and the GI50 [15] was 31.6 µM (inactive).
`CCC(Oc1ccc(OC)c2ccccc(=O)c12)C(=O)O` (centres undefined) was tested, and the GI50 [1] was > 100 µM (inactive), the GI50 [2] was > 100 µM (inactive) and the GI50 [3] was > 100 µM (inactive). The GI50 [4] was > 100 µM (inactive), the GI50 [6] was > 100 µM (inactive) and the GI50 [7] was > 100 µM (inactive). For the same compound, the GI50 [17] was > 100 µM (inactive), the GI50 [8] was > 100 µM (inactive) and the GI50 [9] was > 100 µM (inactive). For the same compound, the GI50 [18] was > 100 µM (inactive), the GI50 [10] was > 100 µM (inactive) and the GI50 [11] was > 100 µM (inactive). The GI50 [14] was > 100 µM (inactive), the GI50 [15] was > 100 µM (inactive) and the GI50 [16] was > 100 µM (inactive). For the same compound, the GI50 [19] was > 100 µM (inactive).
